Values after ≈ are worked out from the molar mass of the structure shown.
Experiments:
Pimephales promelas = conditions: chronic/long-term; duration: 33 days; growth
Daphnia magna = conditions: chronic/long-term; duration: 21 days; reproduction
Apis mellifera = conditions: acute, mortality
Cyprinus carpio = conditions: acute; duration: 96 hours; mortality
Folsomia candida = conditions: chronic/long-term
Bibionidae = conditions: chronic/long-term; duration: 28 days
[1] = reproduction developmental, body weight

## O=C(O)c1cn[nH]c1C(F)F [1H-3-Difluoromethylpyrazole-4-carboxylic acid]
Oryctolagus sp.; [1]
  NOAEL: 300 mg/kg-day

## Cn1cc(C(=O)O)c(C(F)F)n1 [3-(Difluoromethyl)-1-methyl-1H-pyrazole-4-carboxylic acid]
Oryctolagus sp.; reproduction developmental, no effects
  NOAEL: 250 mg/kg-day

## Cn1cc(C(=O)Nc2ccccc2-c2cc(F)c(F)c(F)c2)c(C(F)F)n1 [Fluxapyroxad]
Oryctolagus sp.; developmental, development
  NOAEL: 25 mg/kg-day
Pimephales promelas
  NOEC: 0.0359 mg/L
Tagia sp.; acute, mortality
  LC50: > 1000 mg/kg
Tagia sp.; chronic/long-term, duration: 56 days
  NOEC: 21.3 mg/kg
Rattus norvegicus; acute, oral, mortality
  LD50: > 2000 mg/kg-day
Rattus norvegicus; chronic, duration: 2 years, organ weight
  NOAEL: 2.1 mg/kg-day
Rattus norvegicus; [1]
  NOAEL: 25 mg/kg-day
Rattus norvegicus; subchronic, duration: 90 days, oral, organ weight
  NOAEL: 6 mg/kg-day
Daphnia magna
  NOEC: 0.5 mg/L
Apis mellifera; dermal
  LD50: > 100 µg/piece
Apis mellifera; oral, unspecified
  LD50: > 111 µg/piece
Anas platyrhynchos; acute, oral, unspecified, mortality
  LD50: > 2000 mg/kg-day
Anas platyrhynchos; reproductive
  NOEC: 33.6 mg/kg-day
Anas platyrhynchos; short-term, oral, feed, mortality
  LC50: > 1720 mg/kg-day
Colinus virginianus; acute, oral, diet, mortality
  LC50: > 912 mg/kg-day
Colinus virginianus; acute, oral, mortality
  LD50: > 2000 mg/kg-day
Colinus virginianus; reproduction developmental
  NOEC: 74.6 mg/kg-day
Cyprinus carpio
  LC50: 0.29 µg/mL (≈ 0.761 µM)
Folsomia candida
  NOEC: 2.99 mg/kg
Bibionidae
  NOEC: 75.9 mg/L
